Columns and labels:
Experiment in all cases: relative viability (nuclei count vs DMSO), 5 days (fraction); higher = more cells survive
NCI-H522 = tested on: NCI-H522
How it was run: (§1)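 Five library-drug doses in √10 steps were combined with a fixed anchor-drug dose, or a single drug was given alone, by pin tool to lung cancer cell lines in 1536-well plates the day after seeding. Nuclei were stained and counted after 5 days. Relative viability is the nuclei count in treated wells over that in vehicle wells, taken as the median of duplicate plates.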

NCI-H2009 = tested on: NCI-H2009
How it was run: as §1

NCI-H2170 = tested on: NCI-H2170
How it was run: as §1

NCI-H2228 = tested on: NCI-H2228
How it was run: as §1

NCI-H1734 = tested on: NCI-H1734
How it was run: as §1

COR-L23 = tested on: COR-L23
How it was run: as §1

NCI-H838 = tested on: NCI-H838
How it was run: as §1

NCI-H1793 = tested on: NCI-H1793
How it was run: as §1

SK-MES-1 = tested on: SK-MES-1
How it was run: as §1

NCI-H1755 = tested on: NCI-H1755
How it was run: as §1

COR-L 105 = tested on: COR-L 105
How it was run: as §1

NCI-H2342 = tested on: NCI-H2342
How it was run: as §1

Clc1ccc(Nc2nnc(Cc3ccncc3)c3ccccc23)cc1 [Vatalanib] + Cc1cc(Nc2cc(N3CCN(C)CC3)nc(Sc3ccc(NC(=O)C4CC4)cc3)n2)n[nH]1 [Tozasertib] (partner 0.1 µM)
relative viability (NCI-H522; first compound 0.1265 µM): 0.508
relative viability (NCI-H522; first compound 0.4 µM): 0.636
relative viability (NCI-H522; first compound 1.265 µM): 0.57
relative viability (NCI-H522; first compound 4 µM): 0.477
relative viability (NCI-H2009; first compound 0.04 µM): 0.752
relative viability (NCI-H2009; first compound 0.1265 µM): 0.678
relative viability (NCI-H2009; first compound 0.4 µM): 0.864
relative viability (NCI-H2009; first compound 1.265 µM): 0.739
relative viability (NCI-H2009; first compound 4 µM): 0.682
relative viability (NCI-H2170; first compound 0.04 µM): 0.768
relative viability (NCI-H2170; first compound 0.1265 µM): 0.706
relative viability (NCI-H2170; first compound 0.4 µM): 0.796
relative viability (NCI-H2170; first compound 1.265 µM): 0.677
relative viability (NCI-H2170; first compound 4 µM): 0.777
relative viability (NCI-H2228; first compound 0.04 µM): 0.235
relative viability (NCI-H2228; first compound 0.1265 µM): 0.309
relative viability (NCI-H2228; first compound 0.4 µM): 0.273
relative viability (NCI-H2228; first compound 1.265 µM): 0.227
relative viability (NCI-H2228; first compound 4 µM): 0.239
relative viability (NCI-H1734; first compound 0.04 µM): 0.31
relative viability (NCI-H1734; first compound 0.1265 µM): 0.232
relative viability (NCI-H1734; first compound 0.4 µM): 0.278
relative viability (NCI-H1734; first compound 1.265 µM): 0.276
relative viability (NCI-H1734; first compound 4 µM): 0.249
relative viability (COR-L23; first compound 0.04 µM): 0.232
relative viability (COR-L23; first compound 0.1265 µM): 0.194
relative viability (COR-L23; first compound 0.4 µM): 0.206
relative viability (COR-L23; first compound 1.265 µM): 0.168
relative viability (COR-L23; first compound 4 µM): 0.173
relative viability (NCI-H838; first compound 0.04 µM): 0.249
relative viability (NCI-H838; first compound 0.1265 µM): 0.28
relative viability (NCI-H838; first compound 0.4 µM): 0.302
relative viability (NCI-H838; first compound 1.265 µM): 0.228
relative viability (NCI-H838; first compound 4 µM): 0.295
relative viability (NCI-H1793; first compound 0.04 µM): 0.342
relative viability (NCI-H1793; first compound 0.1265 µM): 0.341
relative viability (NCI-H1793; first compound 0.4 µM): 0.364
relative viability (NCI-H1793; first compound 1.265 µM): 0.276
relative viability (NCI-H1793; first compound 4 µM): 0.329
relative viability (SK-MES-1; first compound 0.04 µM): 0.951
relative viability (SK-MES-1; first compound 0.1265 µM): 0.897
relative viability (SK-MES-1; first compound 0.4 µM): 1.01
relative viability (SK-MES-1; first compound 1.265 µM): 0.813
relative viability (SK-MES-1; first compound 4 µM): 0.803
relative viability (NCI-H1755; first compound 0.04 µM): 0.587
relative viability (NCI-H1755; first compound 0.1265 µM): 0.612
relative viability (NCI-H1755; first compound 0.4 µM): 0.701
relative viability (NCI-H1755; first compound 1.265 µM): 0.58
relative viability (NCI-H1755; first compound 4 µM): 0.628
relative viability (COR-L 105; first compound 0.04 µM): 0.339
relative viability (COR-L 105; first compound 0.1265 µM): 0.344
relative viability (COR-L 105; first compound 0.4 µM): 0.451
relative viability (COR-L 105; first compound 1.265 µM): 0.35
relative viability (COR-L 105; first compound 4 µM): 0.362
relative viability (NCI-H2342; first compound 0.04 µM): 0.618
relative viability (NCI-H2342; first compound 0.1265 µM): 0.532
relative viability (NCI-H2342; first compound 0.4 µM): 0.492
relative viability (NCI-H2342; first compound 1.265 µM): 0.465
relative viability (NCI-H2342; first compound 4 µM): 0.492

Source: the supplement of paper PMC10307832
